System: CYP1A2
Experiment: CYP1A2 enzyme activity in iPSC-hepatocytes (Luc-ME luminescence)
Assay type: cell-based, human
Conditions: in comparison to primary hepatocytes, 5 μM inducer for 48 h
Procedure: 100 μl of this luciferin medium was added to a 96-well white opaque plate with 100 μl luciferin detection reagent, and the luminescence signal was measured on a Cytation 3 Cell Imaging Multi-Mode Reader (BioTek Inc. Winooski, Vt.). After determining the activity, the amount of cells in each scaffold or sandwich culture was analyzed with Quant-iT™ Pico Green kit following the protocols described above.

SMILES: Cc1ccc2cc3c(ccc4ccccc43)c3c2c1CC3 [3-methylcholanthrene]
- induction of CYP1A2 activity: modest

— patent US20180016548A1, “ACELLULAR SCAFFOLDS FOR MATURATION OF IPSC-HEPATOCYTES” (Northwestern University, priority 2016, published 2018)
